Measurements: paper PMC8227856, “Antibacterial Activity of a Promising Antibacterial Agent: 22-(4-(2-(4-Nitrophenyl-piperazin-1-yl)-acetyl)-piperazin-1-yl)-22-deoxypleuromutilin” (Molecules, 2021)
Values after ≈ are worked out from the molar mass of the structure shown. Where two headings read alike, the source gives them in different places.

Experiments:
MRSA ATCC 43300 [1] = assay: MIC, broth dilution micro-method; assay type: cell-based; conditions: Staphylococcus aureus, 24 h, MHB
Description: (§1) The MICs of NPDM against MRSA were determined by the broth dilution micro-method. Briefly, the stock solution of NPDM and the reference drug tiamulin were diluted by a two-fold serial dilution method with MHB in a 96-well plate to provide concentration ranges of 16~0.032 μg/mL. Then 100 μL of bacterial suspensions in log phase were diluted to 10^6 CFU/mL with MHB and were added to each well to make the final concentrations of the test compounds ranging from 8 to 0.016 μg/mL. The bacterial suspension (no drugs but solvent) was used as the positive control and MHB (no cultures) was used as the negative control. […] The MICs assay was carried out in triplicate.

[2] = tested on: S. aureus 144 (clinical strain); assay: MIC, broth dilution micro-method; assay type: cell-based; conditions: Staphylococcus aureus, 24 h, MHB
Description: as §1

[3] = tested on: S. aureus AD3 (clinical strain); assay: MIC, broth dilution micro-method; assay type: cell-based; conditions: Staphylococcus aureus, 24 h, MHB
Description: as §1

S. aureus ATCC 29213 [4] = assay: MIC, broth dilution micro-method; assay type: cell-based; conditions: Staphylococcus aureus, ATCC29213, 24 h, MHB
Description: as §1

MRSA ATCC 43300 [5] = assay: MBC assay; assay type: cell-based, Staphylococcus aureus
Description: (§2) Determination of MBCs refers to the minimum concentrations of antibacterial agents required to kill 99.9% of the test microorganisms after 24 h of incubation. After obtaining the MICs value, the 96-well plates were placed at 37 °C and incubated for 24 h. One hundred microliter aliquots of the bacterial suspensions were taken from the wells without visible bacterial growth and then plated onto MHA plates. […] The MBC assay was conducted at least in triplicate.

[6] = tested on: S. aureus 144 (clinical strain); assay: MBC assay; assay type: cell-based; conditions: Staphylococcus aureus
Description: as §2

[7] = tested on: S. aureus AD3 (clinical strain); assay: MBC assay; assay type: cell-based; conditions: Staphylococcus aureus
Description: as §2

S. aureus ATCC 29213 [8] = assay: MBC assay; assay type: cell-based; conditions: Staphylococcus aureus, ATCC29213
Description: as §2

MRSA ATCC 43300 [9] = assay: Time-kill assay; assay type: cell-based, Staphylococcus aureus
Description: (§3) The MRSA and S. aureus in the logarithmic phase were diluted to 10^6 CFU/mL with MHB. Then diverse concentrations of NPDM or tiamulin were added to the bacteria solution reaching the final concentration of 1 × MIC, 2 × MIC, 4 × MIC, and 8 × MIC, respectively. All bacterial inoculums were cultured at 37 °C with shaking. A total of 100 μL samples were taken from the subcultures at 0, 3, 6, 9, and 24 h, respectively, and continuously diluted 10-fold in sterile saline; then, 25 μL diluent was plated on the MHA plate. All plates were placed at 37 °C for 24 h. The total number of colonies on the plate was counted, and the results were expressed as log (CFU/mL).

S. aureus ATCC 29213 [10] = assay: Time-kill assay; assay type: cell-based, Staphylococcus aureus
Description: as §3

MRSA ATCC 43300 [11] = assay: Post-antibiotic effect (PAE) assay; assay type: cell-based, Staphylococcus aureus
Description: The PAE was carried out as described in the literature. The MRSA was diluted to 10^6 CFU/mL in MHB. The NPDM or tiamulin was added into the bacteria solution at the final concentrations of 2 × MIC and 4 × MIC. Then all tubes were incubated at 37 °C for 1 h or 2 h. Each of the above inoculums was diluted 1000-fold with pre-warmed MHB to remove the test compounds and placed in a water bath at 37 °C immediately. One hundred microliters of suspension were taken from each culture, diluted 10-fold in sterile saline, and inoculated on MHA plates at 0, 1, 2, 4, and 6 h after inoculation. The total number comprising the colonies was counted after incubation at 37 °C for 20 h. The PAE was calculated referring to published methods. The experiment was performed in triplicate.

BRL-3A cells = assay: Cytotoxicity, MTT assay; assay type: cell-based; conditions: Rattus norvegicus, 16 h, read-out: 50% inhibition concentration (IC50), cell viability
Description: The cytotoxicity of NPDM was evaluated by the MTT assay as previously reported. Briefly, the medium containing 1 × 10^5 BRL-3A cells per 1 mL was seeded into a 96-well plate at 100 μL per well. After incubation for 48 h, media were replaced with 100 μL of serial dilutions of test compounds and incubated for 16 h. The absorbance (A) was measured at 490 nm by an automatic microplate reader (BIO-TEK Instrument Inc., Winooski, VT, USA). The cell viability was calculated according to Equation (1):(1) Cell viability (%) = (Asimple−Anegative)/(Apositive−Anegative)×100%
A graph was constructed by plotting the inhibition percentage versus various concentrations of NPDM and tiamulin, from which the IC50 of NPDM or tiamulin was calculated. The measurement was repeated in triplicate.

[12] = Acute oral toxicity in mice; assay type: in vivo; conditions: for LD50 at 2 weeks: both sexes, mice, oral single dose; for LD50 at 2 weeks / Mortality / Mortality Rate: mouse, in vivo, po; for Mortality / Mortality Rate: both, 2 weeks
Description: The acute oral toxicity of NPDM was evaluated according to the method reported in the literature. Mice were divided into 6 groups (10 animals each group, half male and half female) and were fasted for 12 h before the experiment. The NPDM was dissolved in DMSO and suspended in 0.5% sodium carboxymethyl cellulose solution. The volumes of suspension by oral gavages were 0.1 mL/10 g. The vehicle control group received DMSO without drug. All animals were observed twice daily for symptoms and mortality for two weeks. At the end of the study, all surviving animals were sacrificed.

MRSA ATCC 43300 [13] = assay: Neutropenic mouse thigh infection model; assay type: in vivo, Staphylococcus aureus; conditions: 20 mg/kg i.v., neutropenic mice
Description: (§4) The mouse thigh infection model was performed as described in the literature with minor modifications. Briefly, female mice had induced neutropenia (neutrophil count ≤ 100/mm^3) by administered intraperitoneally cyclophosphamide on day 4 (150 mg/kg) and day 1 (100 mg/kg) before the experiment. A bacterial suspension of 0.1 mL (MRSA or S. aureus) containing approximately 10^7 CFU/mL microorganism was injected into the posterior thigh of mice to establish infection. Two hours after infection, mice were intravenously injected with NPDM or tiamulin at 20 mg/kg. After 24 h, thighs (six per group) were collected upon euthanasia. Then, thighs were weighed and homogenized with sterile saline. Tissue homogenate was continuously diluted 10-fold and plated on MHA plates for colony counts. SPSS 19 software was used for statistical analysis and t-tests.

S. aureus ATCC 29213 [14] = assay: Neutropenic mouse thigh infection model; assay type: in vivo, Staphylococcus aureus; conditions: 20 mg/kg i.v., neutropenic mice
Description: as §4

MRSA ATCC 43300 [15] = assay: Neutropenic mouse systemic infection model; assay type: in vivo, Staphylococcus aureus; conditions: 30 mg/kg i.v.
Description: The survival rate of mice was determined by the systemic infection model according to the literature with some modifications. Neutropenic mice (10 per group, half male and half female) were injected with 0.5 mL MRSA inoculum of 10^6 CFU/mL (100% minimum lethal dose) intraperitoneally. One hour after infection, the mice were administered with NPDM or tiamulin intravenously at a dose of 30 mg/kg body weight. Tiamulin was used as a reference drug. The survival of the mice was recorded for 7 days.

MRSA ATCC 43300 [16] = assay: Galleria mellonella infection model; assay type: in vivo; conditions: Staphylococcus aureus, 120 h; Galleria mellonella larvae infected with MRSA, survival over 5 days
Description: The survival rate of Galleria mellonella was determined according to the literature with some modifications. Larvae of Galleria mellonella (16 per group) were injected with 10 μL of 10^8 CFU/mL MRSA inoculum into the last right proleg. Two hours after infection, larvae were injected with 10 μL of various doses (17.14, 25.71, 37.14, 57.14, and 85.71 mg/kg) of NPDM or tiamulin (used as reference drug) into the last left proleg. The larvae were maintained at 37 °C. Survival of the larvae was recorded daily for 5 days, and the ED50 was calculated.

[17] = Pharmacokinetic study in mice, plasma LC-MS/MS; assay type: in vivo
Description: Adult female mice fasted for 12 h before the experiment. The NPDM was administered intravenously at the dose of 10 mg/kg. Approximately 0.2 mL blood samples were collected from the ocular venous plexus at 0.083, 0.167, 0.25, 0.5, 0.75, 1, 2, 4, 6, 8, 12, and 24 h after administration. All samples were centrifuged at 3000 rpm for 10 min, then the plasma samples were separated and stored at −20 °C. After thawing at room temperature, samples were mixed with acetonitrile (HPLC grade, sample:acetonitrile = 1:4, v/v) and centrifuged at 12,000 rpm for 10 min. Then, the supernatant was purified by the 0.22 μm cellulose membrane filter and transferred into an autosampler vial for HPLC-MS/MS analysis. Information of the equipment and analysis conditions are available in the Supplemental Materials. The pharmacokinetic parameters of the NPDM were calculated using the non-compartmental model in WinNonlin 5.2 software (Pharsight, Mountain View, CA, USA).

[18] = female, mouse, plasma, iv, 10 mg/kg i.v., non-compartmental

For `C=C[C@]1(C)C[C@@H](OC(=O)CN2CCN(C(=O)CN3CCN(c4ccc([N+](=O)[O-])cc4)CC3)CC2)[C@]2(C)[C@H](C)CC[C@]3(CCC(=O)[C@H]32)[C@@H](C)[C@@H]1O` [NPDM, 22-(4-(2-(4-nitrophenyl-piperazin-1-yl)-acetyl)-piperazin-1-yl)-22-deoxypleuromutilin], the MIC (MRSA ATCC 43300 [1]) was 0.125 µg/mL (≈ 0.18 µM), the MIC [2] was 0.125 µg/mL (≈ 0.18 µM) and the MIC [3] was 0.125 µg/mL (≈ 0.18 µM). For the same compound, the MIC (S. aureus ATCC 29213 [4]) was 0.125 µg/mL (≈ 0.18 µM), the MBC (MRSA ATCC 43300 [5]; Staphylococcus aureus, MRSA ATCC 43300) was 0.125 µg/mL (≈ 0.18 µM) and the MBC/MIC value (MRSA ATCC 43300 [5]; against MRSA) was “one”. For the same compound, the MBC [6] was 0.5 µg/mL (≈ 0.721 µM), the MBC [7] was 0.5 µg/mL (≈ 0.721 µM) and the MBC (S. aureus ATCC 29213 [8]) was 0.25 µg/mL (≈ 0.36 µM). For the same compound, the “Time-kill activity at 2 × MIC” value (MRSA ATCC 43300 [9]; 2 × MIC) was “bactericidal activity”, the “Concentration showing bactericidal activity (≥3 log10 CFU/mL decrease)” value (MRSA ATCC 43300 [9]; after incubation for 24 h) was ≥ 2 × MIC and the “Concentration showing bacteriostatic effect” value (S. aureus ATCC 29213 [10]) was ≥ 2 × MIC. The PAE (MRSA ATCC 43300 [11]; 2 × MIC, exposure for 1 h) was 2.58 h, the PAE (MRSA ATCC 43300 [11]; 2 × MIC, exposure for 2 h) was 3.62 h and the PAE (MRSA ATCC 43300 [11]; 4 × MIC, exposure for 1 h) was 3.11 h. The PAE (MRSA ATCC 43300 [11]; 4 × MIC, exposure for 2 h) was 4.03 h, the “PAE longer than that of tiamulin” value (MRSA ATCC 43300 [11]; difference vs tiamulin) was 1~2 h and the IC50 (BRL-3A cells) was 9.64 µg/mL (≈ 13.9 µM). The Acute toxicity classification ([12]; LD50 in the range of 501~5000 mg/kg) was “low-toxic compound”, the LD50 at 2 weeks ([12]; modified Karber's formula, read-out: LD50) was 3760 mg/kg and the LD50 at 2 weeks ([12]; read-out: LD50 95% confidence interval) was 3010 to 4710 mg/kg. For the same compound, the Mortality ([12]; 987.65 mg/kg) was 1, the “Mortality Rate” value ([12]; 987.65 mg/kg) was 10% and the Mortality ([12]; 1481.48 mg/kg) was 1. The “Mortality Rate” value ([12]; 1481.48 mg/kg) was 10%, the Mortality ([12]; 2222.22 mg/kg) was 2 and the “Mortality Rate” value ([12]; 2222.22 mg/kg) was 20%. The Mortality ([12]; 3333.33 mg/kg) was 3, the “Mortality Rate” value ([12]; 3333.33 mg/kg) was 30% and the Mortality ([12]; 5000 mg/kg) was 5. The “Mortality Rate” value ([12]; 5000 mg/kg) was 50%, the “Reduction of mean MRSA counts in thighs vs untreated group” value (MRSA ATCC 43300 [13]; 24 h) was ~ 1.61 log CFU/mL and the “Average amount of MRSA inoculum in thighs” value (MRSA ATCC 43300 [13]; 24 h after treatment) was “(8.16 ± 3.70) × 10^7 CFU”. The “Average amount of S. aureus inoculum in thighs” value (S. aureus ATCC 29213 [14]; 24 h after treatment) was “(1.23 ± 0.51) × 10^8 CFU”, the “Reduction of mean bacterial counts in thighs vs untreated group” value (S. aureus ATCC 29213 [14]; S. aureus, 24 h) was ~ 0.95 log CFU/mL and the “Survival rate at the endpoint” value (MRSA ATCC 43300 [15]; lethal MRSA challenge, 7 days, neutropenic mice) was 70%. The “Survival rate higher than that of the tiamulin-treated group” value (MRSA ATCC 43300 [15]; difference vs tiamulin) was 20%, the ED50 (MRSA ATCC 43300 [16]) was 50.5 mg/kg and the MRT ([17]; 10 mg/kg i.v., non-compartmental, 10 mg/kg) was 18.6 ± 3 min. It also gave a clearance ([17]; female, mouse, plasma, 10 mg/kg, single intravenous administration) of 46 mL/min/kg, an AUC(0-inf) [17, 18] of 3660 ± 370 ng·h/mL and an AUC(0-t) [17, 18] of 3650 ± 400 ng·h/mL. For the same compound, the Cmax [17, 18] was 8690 ± 740 ng/mL, the Tmax [17, 18] was 4.98 min and the half-life [17, 18] was 13.2 ± 2.4 min. For the same compound, the MRT ([17]; female, mouse, plasma, iv, 10 mg/kg, 10 mg/kg i.v., non-compartmental, read-out: MRT) was 21.6 min.
